Results published in ChEMBL document CHEMBL1201862, “PubChem BioAssay data set” (2004).
The source made the active and inactive calls.

Columns and labels:
HEK293 [1] = assay: cells; format: functional, cell-based; details: Homo sapiens
[2] = microbe, parasite or virus in culture; format: functional; details: Mycobacterium tuberculosis
Protein RecA = biological target: T1, Protein RecA (Mycobacterium tuberculosis, UniProt P9WHJ3); assay: Fluorescence Cell-Free Homogeneous Dose Retest to Identify Inhibitors of RecA-Intein Splicing Activity. [Related pubchem assays (depositor defined):AID2097, AID2223, AID489010, AID492950]; format: functional
T1 sequence (P9WHJ3 whole entry): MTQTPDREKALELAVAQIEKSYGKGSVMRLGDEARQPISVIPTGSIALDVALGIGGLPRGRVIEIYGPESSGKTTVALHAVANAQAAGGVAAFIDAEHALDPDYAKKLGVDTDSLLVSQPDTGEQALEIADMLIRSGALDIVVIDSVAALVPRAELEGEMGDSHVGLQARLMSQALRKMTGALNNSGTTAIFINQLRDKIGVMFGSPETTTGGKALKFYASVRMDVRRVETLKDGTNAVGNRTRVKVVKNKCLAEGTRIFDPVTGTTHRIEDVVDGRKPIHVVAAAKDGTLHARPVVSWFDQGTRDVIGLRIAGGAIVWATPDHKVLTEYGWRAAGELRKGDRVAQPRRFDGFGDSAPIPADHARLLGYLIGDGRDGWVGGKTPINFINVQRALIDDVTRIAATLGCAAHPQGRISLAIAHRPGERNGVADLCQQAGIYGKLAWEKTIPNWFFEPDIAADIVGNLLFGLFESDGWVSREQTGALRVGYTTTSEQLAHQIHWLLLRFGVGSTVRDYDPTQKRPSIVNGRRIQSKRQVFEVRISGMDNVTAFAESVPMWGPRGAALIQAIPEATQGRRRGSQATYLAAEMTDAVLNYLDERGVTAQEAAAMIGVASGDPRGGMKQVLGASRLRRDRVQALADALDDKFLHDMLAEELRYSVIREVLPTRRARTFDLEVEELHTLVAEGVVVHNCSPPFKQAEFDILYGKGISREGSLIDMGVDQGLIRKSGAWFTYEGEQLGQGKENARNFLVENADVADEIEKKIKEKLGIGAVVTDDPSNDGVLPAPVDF

[3] = biological target: T2, Replicative DNA helicase DnaB (Mycobacterium tuberculosis, UniProt P9WMR3); assay: DnaB intein splicing inhibitors, dose response, biochemical, cell-free fluorescence (AID 449749); format: functional
T2 sequence (P9WMR3 whole entry): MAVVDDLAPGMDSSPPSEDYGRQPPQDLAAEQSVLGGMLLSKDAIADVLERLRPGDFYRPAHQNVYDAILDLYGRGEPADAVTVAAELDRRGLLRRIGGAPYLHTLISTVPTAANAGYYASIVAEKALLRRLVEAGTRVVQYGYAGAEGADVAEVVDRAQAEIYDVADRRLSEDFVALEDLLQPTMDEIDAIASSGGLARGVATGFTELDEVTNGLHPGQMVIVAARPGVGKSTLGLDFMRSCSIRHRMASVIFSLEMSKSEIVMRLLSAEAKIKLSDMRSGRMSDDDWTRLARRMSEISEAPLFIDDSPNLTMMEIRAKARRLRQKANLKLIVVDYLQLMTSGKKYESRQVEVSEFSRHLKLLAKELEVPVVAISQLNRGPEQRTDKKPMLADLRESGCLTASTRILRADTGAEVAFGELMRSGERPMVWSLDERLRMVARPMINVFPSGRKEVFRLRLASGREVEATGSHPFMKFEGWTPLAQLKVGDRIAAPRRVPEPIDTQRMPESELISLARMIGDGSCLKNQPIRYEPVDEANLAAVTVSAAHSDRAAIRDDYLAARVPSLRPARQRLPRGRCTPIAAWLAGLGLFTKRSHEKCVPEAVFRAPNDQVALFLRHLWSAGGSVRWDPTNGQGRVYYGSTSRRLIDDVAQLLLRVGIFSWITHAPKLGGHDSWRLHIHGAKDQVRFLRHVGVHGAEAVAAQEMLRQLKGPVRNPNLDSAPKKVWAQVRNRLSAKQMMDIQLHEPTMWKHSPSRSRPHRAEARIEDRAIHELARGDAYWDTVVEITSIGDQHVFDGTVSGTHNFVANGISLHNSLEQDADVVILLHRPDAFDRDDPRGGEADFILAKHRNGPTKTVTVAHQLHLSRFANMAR

[4] = biological target: Nucleotide-binding oligomerization domain-containing protein 2 (Homo sapiens, UniProt Q9HC29); assay: NOD2 signaling inhibitors, cell-based, luminescence, uHTS, HEK293 (AID 1566); format: functional
HEK293 [5] = assay: cells; format: functional, cell-based; details: Homo sapiens; remark: listed apart in the source
HEK293 [6] = assay: cells; format: functional, cell-based; details: Homo sapiens; remark: listed apart in the source
HEK293 [7] = assay: NOD1 signaling inhibitors, primary screen, cell-based, luminescence, uHTS (AID 1578); format: functional; details: Homo sapiens
HEK293 [8] = assay: NOD2 signaling inhibitors in MDP-stimulated cells, cell-based, uHTS, luminescence (AID 2001); format: functional; details: Homo sapiens
[9] = biological target: E3 ubiquitin-protein ligase XIAP (Homo sapiens, UniProt P98170); assay: Counter Screen using XIAP-Bir3 for Chemical Antagonists of Bir1/2 domains of IAP-family anti-apoptotic proteins. [Related pubchem assays (depositor defined):AID1018, AID1449, AID1514, AID1638, AID1749, AID1750, AID488957, AID488963]
E3 ubiquitin-protein ligase XIAP, sequence (P98170 whole entry): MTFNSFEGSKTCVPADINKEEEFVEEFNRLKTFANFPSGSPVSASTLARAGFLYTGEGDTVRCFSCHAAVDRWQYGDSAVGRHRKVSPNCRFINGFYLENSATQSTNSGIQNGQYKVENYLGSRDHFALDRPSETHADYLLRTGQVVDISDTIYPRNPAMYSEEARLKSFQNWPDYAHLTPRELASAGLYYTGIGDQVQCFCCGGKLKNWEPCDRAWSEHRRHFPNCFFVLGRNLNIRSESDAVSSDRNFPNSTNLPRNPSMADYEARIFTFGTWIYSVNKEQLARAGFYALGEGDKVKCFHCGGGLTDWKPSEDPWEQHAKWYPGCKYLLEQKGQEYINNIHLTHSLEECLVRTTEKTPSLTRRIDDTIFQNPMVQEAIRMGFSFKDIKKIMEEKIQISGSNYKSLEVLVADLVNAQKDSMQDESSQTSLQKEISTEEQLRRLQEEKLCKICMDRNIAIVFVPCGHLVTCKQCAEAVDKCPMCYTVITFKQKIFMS

Estrogen receptor = biological target: T3, Estrogen receptor (Homo sapiens, UniProt P03372);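 further: potency for inhibiting coactivator peptide recruitment to the receptor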
T3 sequence (P03372 whole entry): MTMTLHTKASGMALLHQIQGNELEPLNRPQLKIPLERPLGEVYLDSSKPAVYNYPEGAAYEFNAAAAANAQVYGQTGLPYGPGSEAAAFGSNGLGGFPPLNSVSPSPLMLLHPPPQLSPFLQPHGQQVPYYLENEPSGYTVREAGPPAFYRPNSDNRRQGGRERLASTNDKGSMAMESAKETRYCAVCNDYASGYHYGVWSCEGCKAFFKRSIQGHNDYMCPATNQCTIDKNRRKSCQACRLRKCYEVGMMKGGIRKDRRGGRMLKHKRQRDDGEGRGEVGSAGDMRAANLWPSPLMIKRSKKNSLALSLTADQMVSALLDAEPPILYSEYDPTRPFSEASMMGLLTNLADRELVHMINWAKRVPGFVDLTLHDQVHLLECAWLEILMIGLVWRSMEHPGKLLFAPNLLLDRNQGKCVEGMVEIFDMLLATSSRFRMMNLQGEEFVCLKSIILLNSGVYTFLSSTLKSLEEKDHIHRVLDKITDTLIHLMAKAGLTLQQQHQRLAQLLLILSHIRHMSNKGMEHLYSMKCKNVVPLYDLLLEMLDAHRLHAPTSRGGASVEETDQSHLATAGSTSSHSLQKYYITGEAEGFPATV

[10] = biological target: DNA dC->dU-editing enzyme APOBEC-3G (Homo sapiens, UniProt Q9HC16); assay: Dose Response confirmation of small molecule APOBEC3G DNA Deaminase Inhibitors via a fluorescence-based single-stranded DNA deaminase assay. [Related pubchem assays (depositor defined):AID493012, AID493028]; format: functional
DNA dC->dU-editing enzyme APOBEC-3G, sequence (Q9HC16 whole entry): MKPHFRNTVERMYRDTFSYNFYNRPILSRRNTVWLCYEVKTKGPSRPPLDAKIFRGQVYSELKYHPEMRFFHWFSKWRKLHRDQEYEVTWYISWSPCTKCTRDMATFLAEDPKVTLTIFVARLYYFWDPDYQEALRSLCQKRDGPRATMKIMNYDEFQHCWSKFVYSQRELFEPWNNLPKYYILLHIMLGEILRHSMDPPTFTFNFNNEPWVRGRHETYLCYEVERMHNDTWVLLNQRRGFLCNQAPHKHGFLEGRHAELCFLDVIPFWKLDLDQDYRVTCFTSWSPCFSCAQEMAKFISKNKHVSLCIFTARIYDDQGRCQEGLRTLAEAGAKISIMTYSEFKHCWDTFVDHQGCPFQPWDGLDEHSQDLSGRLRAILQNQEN

[11] = biological target: DNA dC->dU-editing enzyme APOBEC-3A (Homo sapiens, UniProt P31941); assay: APOBEC3A DNA deaminase inhibitors, dose response, biochemical (AID 504722); format: functional
DNA dC->dU-editing enzyme APOBEC-3A, sequence (P31941 whole entry): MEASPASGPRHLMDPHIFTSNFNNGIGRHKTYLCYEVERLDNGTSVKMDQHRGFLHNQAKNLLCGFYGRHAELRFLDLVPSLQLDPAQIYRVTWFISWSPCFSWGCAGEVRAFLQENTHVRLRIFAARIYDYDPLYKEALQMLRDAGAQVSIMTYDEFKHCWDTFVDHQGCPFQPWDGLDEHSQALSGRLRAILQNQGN

[12] = biological target: T4, Voltage-gated N-type calcium channel alpha-1B subunit/Amyloid beta A4 precursor protein-binding family A member 1 (Homo sapiens, UniProt Q00975+Q02410); format: protein assay
T4 sequence (Q00975 whole entry): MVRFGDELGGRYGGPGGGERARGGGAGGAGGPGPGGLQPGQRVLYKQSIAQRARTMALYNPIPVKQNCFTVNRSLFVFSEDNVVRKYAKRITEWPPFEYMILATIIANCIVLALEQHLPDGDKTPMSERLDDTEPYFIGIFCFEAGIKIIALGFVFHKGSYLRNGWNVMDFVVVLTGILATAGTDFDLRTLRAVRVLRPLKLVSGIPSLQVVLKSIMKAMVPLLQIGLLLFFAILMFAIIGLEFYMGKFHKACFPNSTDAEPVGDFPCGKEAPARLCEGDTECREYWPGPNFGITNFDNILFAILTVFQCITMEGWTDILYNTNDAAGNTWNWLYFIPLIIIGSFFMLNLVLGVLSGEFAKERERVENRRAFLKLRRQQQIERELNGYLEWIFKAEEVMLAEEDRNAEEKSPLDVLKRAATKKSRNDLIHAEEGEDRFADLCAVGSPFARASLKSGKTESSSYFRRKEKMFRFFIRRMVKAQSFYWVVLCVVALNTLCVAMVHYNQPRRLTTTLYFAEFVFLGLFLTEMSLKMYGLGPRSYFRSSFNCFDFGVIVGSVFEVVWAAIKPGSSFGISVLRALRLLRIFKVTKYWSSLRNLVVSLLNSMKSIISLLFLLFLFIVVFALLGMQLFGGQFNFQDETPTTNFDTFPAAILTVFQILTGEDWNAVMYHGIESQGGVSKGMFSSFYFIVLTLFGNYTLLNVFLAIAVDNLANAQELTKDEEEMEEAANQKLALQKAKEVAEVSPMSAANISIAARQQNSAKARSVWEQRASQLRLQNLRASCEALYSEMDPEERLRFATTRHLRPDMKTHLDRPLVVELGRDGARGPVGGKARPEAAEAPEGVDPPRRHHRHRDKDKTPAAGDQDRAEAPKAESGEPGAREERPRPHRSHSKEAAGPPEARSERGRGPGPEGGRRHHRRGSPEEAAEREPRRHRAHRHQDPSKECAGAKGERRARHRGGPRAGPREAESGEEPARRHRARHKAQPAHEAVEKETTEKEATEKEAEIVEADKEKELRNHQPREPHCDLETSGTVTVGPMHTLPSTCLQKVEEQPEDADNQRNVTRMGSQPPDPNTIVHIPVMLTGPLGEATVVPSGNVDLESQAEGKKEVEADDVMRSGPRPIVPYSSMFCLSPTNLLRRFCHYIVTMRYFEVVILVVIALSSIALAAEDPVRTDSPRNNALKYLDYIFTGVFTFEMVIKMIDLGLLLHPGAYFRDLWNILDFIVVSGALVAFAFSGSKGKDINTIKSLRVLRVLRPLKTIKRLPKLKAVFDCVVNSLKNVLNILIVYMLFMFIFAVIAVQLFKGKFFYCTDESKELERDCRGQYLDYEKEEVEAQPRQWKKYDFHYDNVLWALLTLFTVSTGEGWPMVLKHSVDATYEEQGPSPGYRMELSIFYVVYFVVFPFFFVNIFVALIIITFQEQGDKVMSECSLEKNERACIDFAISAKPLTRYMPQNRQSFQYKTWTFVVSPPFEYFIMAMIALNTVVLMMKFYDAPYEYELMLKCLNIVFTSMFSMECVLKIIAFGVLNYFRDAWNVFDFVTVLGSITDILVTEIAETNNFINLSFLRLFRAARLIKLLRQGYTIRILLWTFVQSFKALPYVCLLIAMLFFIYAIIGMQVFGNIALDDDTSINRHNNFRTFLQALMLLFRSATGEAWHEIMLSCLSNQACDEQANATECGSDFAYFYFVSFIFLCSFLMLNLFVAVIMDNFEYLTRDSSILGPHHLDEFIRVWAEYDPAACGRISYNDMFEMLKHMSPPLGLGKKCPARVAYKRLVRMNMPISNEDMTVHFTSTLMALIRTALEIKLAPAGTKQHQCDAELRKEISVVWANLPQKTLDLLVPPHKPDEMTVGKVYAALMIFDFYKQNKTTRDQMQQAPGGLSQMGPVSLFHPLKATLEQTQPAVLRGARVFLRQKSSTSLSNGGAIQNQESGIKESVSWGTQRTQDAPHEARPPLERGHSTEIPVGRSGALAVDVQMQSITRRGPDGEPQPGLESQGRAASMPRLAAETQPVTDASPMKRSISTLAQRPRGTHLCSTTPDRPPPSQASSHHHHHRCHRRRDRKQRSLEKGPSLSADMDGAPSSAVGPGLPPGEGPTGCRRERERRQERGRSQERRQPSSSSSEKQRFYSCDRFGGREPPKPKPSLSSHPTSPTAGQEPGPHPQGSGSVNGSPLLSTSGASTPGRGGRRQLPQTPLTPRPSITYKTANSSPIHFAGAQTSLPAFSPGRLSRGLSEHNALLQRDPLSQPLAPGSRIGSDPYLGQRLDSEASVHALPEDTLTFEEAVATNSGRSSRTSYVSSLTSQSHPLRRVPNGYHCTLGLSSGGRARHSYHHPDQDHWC
T4 sequence (Q02410 whole entry): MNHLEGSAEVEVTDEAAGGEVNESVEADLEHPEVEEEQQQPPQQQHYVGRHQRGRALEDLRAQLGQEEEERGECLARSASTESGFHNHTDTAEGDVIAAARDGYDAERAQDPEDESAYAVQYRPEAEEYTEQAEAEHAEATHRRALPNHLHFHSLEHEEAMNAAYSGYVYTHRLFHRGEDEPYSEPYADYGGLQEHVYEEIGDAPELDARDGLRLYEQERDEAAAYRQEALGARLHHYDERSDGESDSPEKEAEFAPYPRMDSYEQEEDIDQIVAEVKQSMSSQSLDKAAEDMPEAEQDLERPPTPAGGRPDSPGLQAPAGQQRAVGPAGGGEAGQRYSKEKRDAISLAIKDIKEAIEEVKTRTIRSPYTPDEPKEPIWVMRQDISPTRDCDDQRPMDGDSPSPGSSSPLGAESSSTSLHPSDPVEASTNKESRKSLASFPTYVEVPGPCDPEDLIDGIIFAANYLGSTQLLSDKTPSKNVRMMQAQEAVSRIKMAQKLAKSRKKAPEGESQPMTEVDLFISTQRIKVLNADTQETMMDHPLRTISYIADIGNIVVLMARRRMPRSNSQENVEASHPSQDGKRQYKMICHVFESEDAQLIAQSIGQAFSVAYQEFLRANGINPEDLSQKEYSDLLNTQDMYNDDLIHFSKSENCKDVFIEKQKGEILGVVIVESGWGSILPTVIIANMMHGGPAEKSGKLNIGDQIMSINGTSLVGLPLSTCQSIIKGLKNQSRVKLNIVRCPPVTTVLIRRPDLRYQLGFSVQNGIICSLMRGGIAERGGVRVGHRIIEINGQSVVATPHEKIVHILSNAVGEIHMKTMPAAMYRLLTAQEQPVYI

[13] = biological target: T5, Small ubiquitin-related modifier 1 (Homo sapiens, UniProt P63165); assay: inhibitors of SUMO1 partner interactions, dose response, biochemical, FRET (AID 624383); format: functional; details: read-out: IC50_Mean
T5 sequence (P63165 whole entry): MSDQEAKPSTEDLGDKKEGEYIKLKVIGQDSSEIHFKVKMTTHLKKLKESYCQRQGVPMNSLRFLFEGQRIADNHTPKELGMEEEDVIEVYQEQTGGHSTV

[14] = biological target: T5, Small ubiquitin-related modifier 1; assay: inhibitors of SUMO1 peptide binding, dose response, biochemical, fluorescence polarization, uHTS hits (AID 624382); format: functional; details: read-out: IC50_Mean
[15] = biological target: T4, Voltage-gated N-type calcium channel alpha-1B subunit/Amyloid beta A4 precursor protein-binding family A member 1; format: protein assay; remark: listed apart in the source
[16] = biological target: T6, Microphthalmia-associated transcription factor (Homo sapiens, UniProt O75030); assay: TRPM1 promoter luciferase signal decrease, dose response, MITF inhibitor project, cell-based, SK-MEL-5, cherry-picked, set 3 (AID 493073); format: functional
T6 sequence (O75030 whole entry): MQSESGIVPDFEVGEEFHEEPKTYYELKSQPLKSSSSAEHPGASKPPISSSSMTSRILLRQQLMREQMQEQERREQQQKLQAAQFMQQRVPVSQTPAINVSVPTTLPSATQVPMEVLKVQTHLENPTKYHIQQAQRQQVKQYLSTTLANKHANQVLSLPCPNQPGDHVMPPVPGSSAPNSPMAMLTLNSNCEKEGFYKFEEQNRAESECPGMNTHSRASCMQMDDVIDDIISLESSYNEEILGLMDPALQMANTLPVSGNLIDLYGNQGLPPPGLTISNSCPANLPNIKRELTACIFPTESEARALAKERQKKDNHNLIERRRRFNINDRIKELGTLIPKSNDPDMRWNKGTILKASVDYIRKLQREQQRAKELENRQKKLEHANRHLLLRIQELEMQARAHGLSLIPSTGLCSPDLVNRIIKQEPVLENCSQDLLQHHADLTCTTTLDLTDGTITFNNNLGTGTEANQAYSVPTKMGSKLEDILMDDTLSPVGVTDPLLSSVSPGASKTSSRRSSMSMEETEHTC

[17] = cytotoxicity toward NIH3T3 fibroblasts, dose response, counter-screen, cell-based, ATP luminescence, mouse fibroblasts (AID 2010); format: functional;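 further: cells exposed to compound for about 90 hours before reading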
[18] = inhibitors of intracellular T. cruzi replication, confirmation, NIH3T3 host cells, beta-gal luminescence (AID 2044); format: functional, cell-based;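 further: intracellular parasites grown in NIH/3T3 mouse fibroblasts as host cells; luminescent beta-galactosidase reporter signal from transgenic T. cruzi replicating inside host cells; inhibitors lower the luminescence signal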
Fatty acid synthase = Fatty acid synthase (Homo sapiens, UniProt P49327); assay: FAS thioesterase domain inhibitors, dose response, biochemical, kinetic fluorescence intensity (AID 624326); format: functional;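 further: rate of fluorescence rise from hydrolysis of a fluorogenic O-methyl fluorescein ester substrate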
CAAX prenyl protease 2 = biological target: T7, CAAX prenyl protease 2 (Saccharomyces cerevisiae S288c, UniProt Q03530); format: biochemical
T7 sequence (Q03530 whole entry): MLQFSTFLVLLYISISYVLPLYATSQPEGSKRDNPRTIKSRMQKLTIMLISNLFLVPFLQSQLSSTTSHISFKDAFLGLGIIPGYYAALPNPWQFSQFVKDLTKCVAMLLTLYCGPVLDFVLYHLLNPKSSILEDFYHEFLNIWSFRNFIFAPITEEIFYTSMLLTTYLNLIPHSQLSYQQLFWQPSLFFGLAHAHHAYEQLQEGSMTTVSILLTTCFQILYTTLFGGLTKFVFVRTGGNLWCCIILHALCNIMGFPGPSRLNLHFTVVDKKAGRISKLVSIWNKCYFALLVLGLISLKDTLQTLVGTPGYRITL

[19] = biological target: T8, Rac GTPase-activating protein 1 (Homo sapiens, UniProt Q9H0H5); assay: MgcRacGAP GTPase-activating activity inhibitors, confirmation, biochemical, ADP Hunter fluorescence, primary and confirmatory (AID 624330); format: functional
T8 sequence (Q9H0H5 whole entry): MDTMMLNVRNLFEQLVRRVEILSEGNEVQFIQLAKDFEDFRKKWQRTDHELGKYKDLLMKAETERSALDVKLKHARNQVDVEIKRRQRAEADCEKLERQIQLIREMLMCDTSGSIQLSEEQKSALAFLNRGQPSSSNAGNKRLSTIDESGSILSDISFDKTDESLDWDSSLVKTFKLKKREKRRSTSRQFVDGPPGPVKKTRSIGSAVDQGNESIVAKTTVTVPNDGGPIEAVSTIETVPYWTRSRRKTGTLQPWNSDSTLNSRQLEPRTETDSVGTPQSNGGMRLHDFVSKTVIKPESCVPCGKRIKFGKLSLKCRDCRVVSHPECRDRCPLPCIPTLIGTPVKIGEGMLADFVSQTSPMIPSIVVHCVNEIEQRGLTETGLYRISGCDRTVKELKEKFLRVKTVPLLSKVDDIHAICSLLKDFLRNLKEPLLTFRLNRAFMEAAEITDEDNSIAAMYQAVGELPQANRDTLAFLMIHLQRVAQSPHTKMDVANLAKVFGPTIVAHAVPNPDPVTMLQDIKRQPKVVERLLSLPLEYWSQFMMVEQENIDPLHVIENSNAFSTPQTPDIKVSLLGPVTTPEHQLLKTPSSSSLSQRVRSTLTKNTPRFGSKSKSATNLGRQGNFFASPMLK

Large T antigen = Large T antigen (Simian virus 40, UniProt P03070); format: functional, Betapolyomavirus macacae;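 further: Confirmatory-stage PubChem screen for compounds that inhibit SV40 T antigen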
Large T antigen, sequence (P03070 whole entry): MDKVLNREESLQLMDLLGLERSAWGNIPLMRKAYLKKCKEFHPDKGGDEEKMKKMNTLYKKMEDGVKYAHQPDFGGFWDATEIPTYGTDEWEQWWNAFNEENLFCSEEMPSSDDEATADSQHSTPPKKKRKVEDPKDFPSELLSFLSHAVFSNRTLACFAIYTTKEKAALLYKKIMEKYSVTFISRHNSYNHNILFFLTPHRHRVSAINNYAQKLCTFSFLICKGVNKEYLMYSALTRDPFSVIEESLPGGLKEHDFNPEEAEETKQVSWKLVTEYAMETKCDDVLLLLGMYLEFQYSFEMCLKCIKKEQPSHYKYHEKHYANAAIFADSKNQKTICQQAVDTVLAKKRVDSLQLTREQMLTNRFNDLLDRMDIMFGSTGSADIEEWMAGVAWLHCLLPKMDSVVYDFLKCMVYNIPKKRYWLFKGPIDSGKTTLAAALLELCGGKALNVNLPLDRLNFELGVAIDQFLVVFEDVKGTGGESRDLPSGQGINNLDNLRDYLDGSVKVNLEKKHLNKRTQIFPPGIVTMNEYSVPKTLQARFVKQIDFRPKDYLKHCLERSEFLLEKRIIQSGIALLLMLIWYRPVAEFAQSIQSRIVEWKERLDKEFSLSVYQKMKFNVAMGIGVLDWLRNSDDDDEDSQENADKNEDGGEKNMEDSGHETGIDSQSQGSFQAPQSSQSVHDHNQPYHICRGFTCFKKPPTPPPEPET

Compound: COc1ccc(-n2nc3c(c2NC(=O)CCl)CSC3)cc1
- IC50 (HEK293 [1]): > 20 µM (inactive)
- CC50 [2]: 18 µM (active)
- EC50 (Protein RecA): > 380 µM (inconclusive)
- AC50 [3]: 13.6 µM (active)
- EC50 [4]: > 20 µM (inactive)
- IC50 (HEK293 [5]): > 20 µM (inactive)
- IC50 (HEK293 [6]): 7.89 µM (active)
- EC50 (HEK293 [7]): 13.1 µM (active)
- IC50 (HEK293 [8]): 14.8 µM (inactive)

Compound: O=C(NCc1ccc(Cl)cc1)c1cc(-c2cccs2)on1
- IC50 [9]: > 20 µM (inactive)
- IC50 (Estrogen receptor): > 50 µM (not active)

Compound: S=c1nc(-c2ccccc2)n(-c2ccccc2)[nH]1
- IC50 [10]: 7.02 µM (active)
- IC50 [11]: > 100 µM (inactive)

Compound: CC(OC(=O)c1ccc(NC(=O)CC#N)cc1)C(=O)Nc1ccc(Oc2ccccc2)cc1 (configuration not stated)
- IC50 [12]: > 50 µM (inactive)
- IC50 [13]: 17.1 µM (active)
- IC50 [14]: > 66.6 µM (inactive)
- IC50 [15]: 8.36 µM (active)

Compound: C[C@H]1CCC[C@]2(C)C[C@H]3OC(=O)C(CN4CCCCCC4)[C@H]3C=C12 (some centres not stated)
- AC50 [16]: 13.9 µM (active)

Compound: CCOC(=O)c1nnn(-c2ccc([N+](=O)[O-])cc2[N+](=O)[O-])c1C
- EC50 [17]: > 60 µM (not active)
- EC50 [18]: 0.647 µM (active)
- AC50 [16]: 8.85 µM (active)

Compound: O=S(=O)(c1ccc(-c2csc(Nc3ccc(F)cc3)n2)cc1)N1CCCC1
- IC50 (Fatty acid synthase): 15.2 µM (active)
- AC50 (CAAX prenyl protease 2): 19.8 µM (active)

Compound: Cc1cc(-c2nnc(S)n2/N=C/c2cccs2)[nH]n1
- IC50 [19]: 87.8 µM (active)
- IC50 [10]: 2.9 µM (active)
- IC50 [11]: > 100 µM (inactive)
- IC50 (Large T antigen): 55 µM (active)
